Reference: publication PMC6199309, “A therapeutic approach to pantothenate kinase associated neurodegeneration” (Nature Communications, 2018)

Key:
Test in all cases: KINOMEscan
Assay type in all cases: binding
Details in all cases: read-out: %Ctrl @ 10000nM
MAP4K2 = target: T1, MAP4K2 (Homo sapiens, UniProt Q12851)
T1 construct: purchased DiscoverX KINOMEscan

ZAP70 = target: T2, ZAP70 (Homo sapiens, UniProt P43403)
T2 construct: purchased DiscoverX scanMAX; host or cells: E. coli BL21-derived host (T7 phage) or HEK-293

CAMK2B = target: T3, CAMK2B (Homo sapiens, UniProt Q13554)
T3 construct: purchased DiscoverX KINOMEscan

DAPK3 = target: T4, DAPK3 (Homo sapiens, UniProt O43293)
T4 construct: purchased DiscoverX KINOMEscan

FLT3(N841I) = target: T5, FLT3(N841I) (Homo sapiens, UniProt P36888, N841I)
T5 construct: purchased DiscoverX KINOMEscan

OSR1 = target: T6, OSR1 (Homo sapiens, UniProt O95747)
T6 construct: purchased DiscoverX KINOMEscan

FGFR4 = target: T7, FGFR4 (Homo sapiens, UniProt P22455)
T7 construct: purchased DiscoverX KINOMEscan

CTK = target: T8, CTK (Homo sapiens, UniProt P42679)
T8 construct: purchased DiscoverX KINOMEscan

NEK5 = target: T9, NEK5 (Homo sapiens, UniProt Q6P3R8)
T9 construct: purchased DiscoverX KINOMEscan

CAMK2G = target: T10, CAMK2G (Homo sapiens, UniProt Q13555)
T10 construct: purchased DiscoverX KINOMEscan

PIK3CA(H1047L) = target: T11, PIK3CA(H1047L) (Homo sapiens, UniProt P42336, H1047L)
T11 construct: purchased DiscoverX KINOMEscan

TSSK3 = target: T12, TSSK3 (Homo sapiens, UniProt Q96PN8)
T12 construct: DNA label for qPCR (T7 phage fusion or DNA tag); purchased DiscoverX scanMAX; host or cells: E. coli BL21-derived (T7 phage) or HEK-293

AKT3 = target: T13, AKT3 (Homo sapiens, UniProt Q9Y243)
T13 construct: purchased DiscoverX KINOMEscan

CLK1 = target: T14, CLK1 (Homo sapiens, UniProt P49759)
T14 construct: purchased DiscoverX KINOMEscan

BRSK2 = target: T15, BRSK2 (Homo sapiens, UniProt Q8IWQ3)
T15 construct: purchased DiscoverX KINOMEscan

BRSK1 = target: T16, BRSK1 (Homo sapiens, UniProt Q8TDC3)
T16 construct: purchased DiscoverX KINOMEscan

PYK2 = target: T17, PYK2 (Homo sapiens, UniProt Q14289)
T17 construct: purchased DiscoverX KINOMEscan

NDR2 = target: T18, NDR2 (Homo sapiens, UniProt Q9Y2H1)
T18 construct: purchased DiscoverX KINOMEscan

FGR = target: T19, FGR (Homo sapiens, UniProt P09769)
T19 construct: purchased DiscoverX KINOMEscan

EPHA8 = target: T20, EPHA8 (Homo sapiens, UniProt P29322)
T20 construct: purchased DiscoverX KINOMEscan

CLK2 = target: T21, CLK2 (Homo sapiens, UniProt P49760)
T21 construct: purchased DiscoverX KINOMEscan

STK35 = target: T22, STK35 (Homo sapiens, UniProt Q8TDR2)
T22 construct: DNA tag for qPCR (T7 phage fusion or DNA label); purchased DiscoverX KdELECT; host or cells: E. coli BL21-derived (T7 phage) or HEK-293

EGFR(G719C) = target: T23, EGFR(G719C) (Homo sapiens, UniProt P00533, G719C)
T23 construct: purchased DiscoverX KINOMEscan

DRAK1 = target: T24, DRAK1 (Homo sapiens, UniProt Q9UEE5)
T24 construct: purchased DiscoverX KINOMEscan

[1] = target: T25, EGFR(L747-E749del, A750P) (Homo sapiens, UniProt P00533, A750P/DEL747-749)
T25 construct: purchased DiscoverX KINOMEscan

DYRK2 = target: T26, DYRK2 (Homo sapiens, UniProt Q92630)
T26 construct: purchased DiscoverX KINOMEscan

NEK11 = target: T27, NEK11 (Homo sapiens, UniProt Q8NG66)
T27 construct: purchased DiscoverX KINOMEscan

MEK1 = target: T28, MEK1 (Homo sapiens, UniProt Q02750)
T28 construct: purchased DiscoverX KINOMEscan

IKK-epsilon = target: T29, IKK-epsilon (Homo sapiens, UniProt Q14164)
T29 construct: purchased DiscoverX KINOMEscan

BMPR1B = target: T30, BMPR1B (Homo sapiens, UniProt O00238)
T30 construct: purchased DiscoverX KINOMEscan

ANKK1 = target: T31, ANKK1 (Homo sapiens, UniProt Q8NFD2)
T31 construct: purchased DiscoverX KINOMEscan

[2] = target: T32, RSK3(Kin.Dom.2-C-terminal) (Homo sapiens, UniProt Q15349)
T32 construct: RSK3(Kin.Dom.2-C-terminal); purchased DiscoverX KINOMEscan

GRK7 = target: T33, GRK7 (Homo sapiens, UniProt Q8WTQ7)
T33 construct: purchased DiscoverX KINOMEscan

[3] = target: T34, RSK1(Kin.Dom.2-C-terminal) (Homo sapiens, UniProt Q15418)
T34 construct: RSK1(Kin.Dom.2-C-terminal); purchased DiscoverX KINOMEscan

PAK1 = target: T35, PAK1 (Homo sapiens, UniProt Q13153)
T35 construct: purchased DiscoverX KINOMEscan

[4] = target: T36, ABL1(Q252H)-phosphorylated (Homo sapiens, UniProt P00519, Q252H)
T36 construct: purchased DiscoverX KINOMEscan

WEE2 = target: T37, WEE2 (Homo sapiens, UniProt P0C1S8)
T37 construct: DNA label for qPCR (T7 phage fusion or DNA tag); purchased DiscoverX scanMAX; host or cells: E. coli BL21-derived (T7 phage) or HEK-293

EPHA2 = target: T38, EPHA2 (Homo sapiens, UniProt P29317)
T38 construct: purchased DiscoverX KINOMEscan

LCK = target: T39, LCK (Homo sapiens, UniProt P06239)
T39 construct: purchased DiscoverX KINOMEscan

IGF1R = target: T40, IGF1R (Homo sapiens, UniProt P08069)
T40 construct: purchased DiscoverX KINOMEscan

T20 sequence (P29322 28-1005): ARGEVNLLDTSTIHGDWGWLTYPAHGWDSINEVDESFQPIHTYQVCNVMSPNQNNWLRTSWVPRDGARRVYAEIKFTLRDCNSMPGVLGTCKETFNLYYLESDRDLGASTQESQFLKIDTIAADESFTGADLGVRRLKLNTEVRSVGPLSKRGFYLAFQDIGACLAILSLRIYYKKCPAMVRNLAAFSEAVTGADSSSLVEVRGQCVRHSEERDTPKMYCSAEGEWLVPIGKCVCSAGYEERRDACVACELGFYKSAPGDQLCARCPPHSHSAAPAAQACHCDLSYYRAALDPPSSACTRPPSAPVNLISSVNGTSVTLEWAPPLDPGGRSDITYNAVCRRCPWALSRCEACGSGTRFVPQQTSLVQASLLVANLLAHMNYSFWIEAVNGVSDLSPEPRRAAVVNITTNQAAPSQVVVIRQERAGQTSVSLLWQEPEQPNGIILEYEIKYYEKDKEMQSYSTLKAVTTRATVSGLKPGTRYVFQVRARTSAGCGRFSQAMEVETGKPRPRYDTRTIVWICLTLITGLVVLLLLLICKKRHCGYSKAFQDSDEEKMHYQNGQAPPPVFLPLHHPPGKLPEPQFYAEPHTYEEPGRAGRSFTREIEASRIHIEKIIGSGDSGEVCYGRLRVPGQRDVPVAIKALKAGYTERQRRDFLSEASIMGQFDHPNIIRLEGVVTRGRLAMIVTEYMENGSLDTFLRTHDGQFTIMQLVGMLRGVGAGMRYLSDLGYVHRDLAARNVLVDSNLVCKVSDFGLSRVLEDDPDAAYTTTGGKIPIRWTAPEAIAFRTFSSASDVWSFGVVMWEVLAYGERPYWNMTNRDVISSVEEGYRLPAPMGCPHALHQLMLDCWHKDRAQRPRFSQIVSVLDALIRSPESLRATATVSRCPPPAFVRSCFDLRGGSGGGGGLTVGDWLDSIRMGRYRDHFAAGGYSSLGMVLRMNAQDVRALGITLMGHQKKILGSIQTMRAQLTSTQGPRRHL
T33 sequence (Q8WTQ7 whole entry): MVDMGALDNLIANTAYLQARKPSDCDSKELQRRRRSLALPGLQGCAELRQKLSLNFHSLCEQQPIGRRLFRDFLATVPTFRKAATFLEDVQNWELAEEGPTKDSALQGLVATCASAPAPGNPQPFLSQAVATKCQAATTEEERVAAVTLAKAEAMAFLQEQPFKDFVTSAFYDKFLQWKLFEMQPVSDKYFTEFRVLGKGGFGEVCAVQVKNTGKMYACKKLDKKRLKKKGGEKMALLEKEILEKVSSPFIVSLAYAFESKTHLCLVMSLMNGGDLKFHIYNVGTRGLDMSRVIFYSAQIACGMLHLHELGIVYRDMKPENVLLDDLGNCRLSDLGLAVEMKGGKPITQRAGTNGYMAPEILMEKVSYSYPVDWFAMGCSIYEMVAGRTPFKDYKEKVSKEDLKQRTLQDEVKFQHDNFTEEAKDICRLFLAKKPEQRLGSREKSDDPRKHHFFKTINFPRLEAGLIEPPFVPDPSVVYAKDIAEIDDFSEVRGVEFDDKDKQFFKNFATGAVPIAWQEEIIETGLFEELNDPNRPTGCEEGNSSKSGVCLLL
T30 sequence (O00238 14-502): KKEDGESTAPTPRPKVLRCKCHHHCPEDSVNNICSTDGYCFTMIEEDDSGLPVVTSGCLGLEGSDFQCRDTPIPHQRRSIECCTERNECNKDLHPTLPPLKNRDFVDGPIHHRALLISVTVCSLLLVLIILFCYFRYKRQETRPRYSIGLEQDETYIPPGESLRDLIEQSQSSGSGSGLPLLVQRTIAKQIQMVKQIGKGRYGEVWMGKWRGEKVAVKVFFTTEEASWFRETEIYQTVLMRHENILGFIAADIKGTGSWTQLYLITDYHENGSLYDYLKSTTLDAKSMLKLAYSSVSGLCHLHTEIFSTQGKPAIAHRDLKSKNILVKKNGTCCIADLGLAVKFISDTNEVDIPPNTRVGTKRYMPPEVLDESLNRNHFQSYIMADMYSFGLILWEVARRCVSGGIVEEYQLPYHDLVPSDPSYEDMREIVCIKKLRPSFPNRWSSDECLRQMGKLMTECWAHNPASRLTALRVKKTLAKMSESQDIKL
T27 sequence (Q8NG66 whole entry): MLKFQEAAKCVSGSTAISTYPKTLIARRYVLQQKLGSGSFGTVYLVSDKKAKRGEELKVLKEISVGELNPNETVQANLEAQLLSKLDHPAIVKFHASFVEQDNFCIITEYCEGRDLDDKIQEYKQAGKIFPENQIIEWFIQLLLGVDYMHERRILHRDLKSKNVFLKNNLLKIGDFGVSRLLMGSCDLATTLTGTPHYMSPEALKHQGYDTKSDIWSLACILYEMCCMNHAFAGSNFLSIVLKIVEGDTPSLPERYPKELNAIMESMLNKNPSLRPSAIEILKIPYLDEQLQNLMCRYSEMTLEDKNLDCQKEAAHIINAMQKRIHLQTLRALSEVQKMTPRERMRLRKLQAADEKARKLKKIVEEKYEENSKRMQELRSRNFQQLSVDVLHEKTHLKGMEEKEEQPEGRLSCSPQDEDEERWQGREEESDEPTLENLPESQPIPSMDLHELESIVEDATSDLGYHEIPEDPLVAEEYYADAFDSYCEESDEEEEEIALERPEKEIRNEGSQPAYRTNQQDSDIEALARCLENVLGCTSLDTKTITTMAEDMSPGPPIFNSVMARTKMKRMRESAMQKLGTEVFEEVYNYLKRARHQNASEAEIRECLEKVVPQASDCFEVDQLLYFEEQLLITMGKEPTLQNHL
T31 sequence (Q8NFD2 whole entry): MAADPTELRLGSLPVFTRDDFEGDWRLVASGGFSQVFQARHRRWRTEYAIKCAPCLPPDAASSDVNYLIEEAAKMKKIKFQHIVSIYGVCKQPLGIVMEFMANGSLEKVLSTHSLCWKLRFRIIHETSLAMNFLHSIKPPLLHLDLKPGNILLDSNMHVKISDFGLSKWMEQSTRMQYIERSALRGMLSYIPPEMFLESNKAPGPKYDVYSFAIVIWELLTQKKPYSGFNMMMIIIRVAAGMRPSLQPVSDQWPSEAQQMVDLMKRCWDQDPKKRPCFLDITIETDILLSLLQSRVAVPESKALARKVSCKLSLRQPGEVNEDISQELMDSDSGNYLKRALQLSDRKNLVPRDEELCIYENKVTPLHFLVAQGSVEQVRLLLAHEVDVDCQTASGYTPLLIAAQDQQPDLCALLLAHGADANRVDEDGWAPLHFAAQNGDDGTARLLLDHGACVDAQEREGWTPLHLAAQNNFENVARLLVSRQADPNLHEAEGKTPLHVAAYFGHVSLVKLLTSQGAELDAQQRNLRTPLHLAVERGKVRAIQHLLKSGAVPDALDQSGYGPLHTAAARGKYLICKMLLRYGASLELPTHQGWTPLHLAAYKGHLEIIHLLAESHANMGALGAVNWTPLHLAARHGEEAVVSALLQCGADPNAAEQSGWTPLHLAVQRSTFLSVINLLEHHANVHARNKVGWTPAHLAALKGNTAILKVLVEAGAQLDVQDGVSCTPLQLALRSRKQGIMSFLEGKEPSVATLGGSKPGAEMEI
T25 sequence (P00533 with tags, fused parts or gaps DEL747-749/A750P limits assumed): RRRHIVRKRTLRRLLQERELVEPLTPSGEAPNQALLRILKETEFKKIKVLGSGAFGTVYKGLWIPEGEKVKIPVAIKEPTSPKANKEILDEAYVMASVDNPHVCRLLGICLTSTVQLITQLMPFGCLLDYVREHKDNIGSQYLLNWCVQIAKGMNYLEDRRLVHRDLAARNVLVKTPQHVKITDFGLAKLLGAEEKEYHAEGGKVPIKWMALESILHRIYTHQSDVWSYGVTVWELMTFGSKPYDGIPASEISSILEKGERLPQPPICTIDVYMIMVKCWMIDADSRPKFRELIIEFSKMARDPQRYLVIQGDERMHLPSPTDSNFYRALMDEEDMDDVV
T16 sequence (Q8TDC3 whole entry): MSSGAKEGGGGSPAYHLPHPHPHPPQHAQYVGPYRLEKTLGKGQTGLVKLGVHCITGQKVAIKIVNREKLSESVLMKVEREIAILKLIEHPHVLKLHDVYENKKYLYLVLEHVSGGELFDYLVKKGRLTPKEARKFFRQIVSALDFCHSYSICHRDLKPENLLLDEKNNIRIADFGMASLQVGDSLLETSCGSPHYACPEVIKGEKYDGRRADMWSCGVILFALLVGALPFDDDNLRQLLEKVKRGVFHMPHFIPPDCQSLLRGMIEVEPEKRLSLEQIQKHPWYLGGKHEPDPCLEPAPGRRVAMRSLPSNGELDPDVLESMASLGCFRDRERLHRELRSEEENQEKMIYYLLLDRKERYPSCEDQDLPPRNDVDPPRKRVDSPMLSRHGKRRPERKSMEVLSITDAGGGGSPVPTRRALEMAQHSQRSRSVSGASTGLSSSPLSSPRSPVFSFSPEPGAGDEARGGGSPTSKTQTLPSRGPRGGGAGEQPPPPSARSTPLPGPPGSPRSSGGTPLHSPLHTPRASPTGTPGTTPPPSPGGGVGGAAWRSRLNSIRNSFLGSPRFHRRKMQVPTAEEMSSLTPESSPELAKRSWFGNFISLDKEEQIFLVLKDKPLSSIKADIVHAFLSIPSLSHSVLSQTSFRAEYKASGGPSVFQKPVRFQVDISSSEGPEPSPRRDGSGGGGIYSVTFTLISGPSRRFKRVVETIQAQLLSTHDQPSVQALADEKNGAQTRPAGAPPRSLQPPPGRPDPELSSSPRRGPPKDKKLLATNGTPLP
T12 sequence (Q96PN8 whole entry, the tested form may be a part): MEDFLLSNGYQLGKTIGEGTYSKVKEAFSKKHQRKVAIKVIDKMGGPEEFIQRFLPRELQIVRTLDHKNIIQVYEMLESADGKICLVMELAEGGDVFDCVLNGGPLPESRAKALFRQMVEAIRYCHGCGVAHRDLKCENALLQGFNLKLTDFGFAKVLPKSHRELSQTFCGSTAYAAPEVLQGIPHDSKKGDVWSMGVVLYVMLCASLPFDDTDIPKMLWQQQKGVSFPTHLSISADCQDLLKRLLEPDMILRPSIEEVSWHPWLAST

`CC(C)c1ccc(CC(=O)N2CCN(c3ccc(C#N)nn3)CC2)cc1` [PZ-2891, 6-(4-(2-(4-isopropylphenyl)acetyl)piperazin-1-yl)pyridazine-3-carbonitrile] was tested. Which remaining binding at 10 µM (MAP4K2) did it give?
Its remaining binding at 10 µM is 77%.

And the remaining binding at 10 µM (ZAP70)?
Its remaining binding at 10 µM is 96%.

What about the remaining binding at 10 µM (CAMK2B) of the same compound?
The remaining binding at 10 µM was 88%.

And the remaining binding at 10 µM (DAPK3)?
Its remaining binding at 10 µM is 100%.

And the remaining binding at 10 µM (FLT3(N841I))?
Its remaining binding at 10 µM is 86%.

What about the remaining binding at 10 µM (OSR1) of the same compound?
Its remaining binding at 10 µM is 87%.

And the remaining binding at 10 µM (FGFR4)?
The remaining binding at 10 µM was 73%.

And the remaining binding at 10 µM (CTK)?
Its remaining binding at 10 µM is 77%.

And the remaining binding at 10 µM (NEK5)?
The remaining binding at 10 µM was 100%.

What about the remaining binding at 10 µM (CAMK2G) of the same compound?
Its remaining binding at 10 µM is 86%.

What about the remaining binding at 10 µM (PIK3CA(H1047L)) of the same compound?
Its remaining binding at 10 µM is 69%.

And the remaining binding at 10 µM (TSSK3)?
Its remaining binding at 10 µM is 69%.

And the remaining binding at 10 µM (AKT3)?
Its remaining binding at 10 µM is 82%.

And the remaining binding at 10 µM (CLK1)?
Its remaining binding at 10 µM is 75%.

What about the remaining binding at 10 µM (BRSK2) of the same compound?
Its remaining binding at 10 µM is 81%.

What about the remaining binding at 10 µM (BRSK1) of the same compound?
Its remaining binding at 10 µM is 75%.

And the remaining binding at 10 µM (PYK2)?
The remaining binding at 10 µM was 90%.

What about the remaining binding at 10 µM (NDR2) of the same compound?
The remaining binding at 10 µM was 94%.

What about the remaining binding at 10 µM (FGR) of the same compound?
Its remaining binding at 10 µM is 96%.

And the remaining binding at 10 µM (EPHA8)?
The remaining binding at 10 µM was 95%.

And the remaining binding at 10 µM (CLK2)?
Its remaining binding at 10 µM is 94%.

And the remaining binding at 10 µM (STK35)?
The remaining binding at 10 µM was 0.2%.

What about the remaining binding at 10 µM (EGFR(G719C)) of the same compound?
Its remaining binding at 10 µM is 100%.

And the remaining binding at 10 µM (DRAK1)?
Its remaining binding at 10 µM is 99%.

And the remaining binding at 10 µM [1]?
The remaining binding at 10 µM was 72%.

What about the remaining binding at 10 µM (DYRK2) of the same compound?
The remaining binding at 10 µM was 97%.

And the remaining binding at 10 µM (NEK11)?
The remaining binding at 10 µM was 99%.

What about the remaining binding at 10 µM (MEK1) of the same compound?
The remaining binding at 10 µM was 76%.

What about the remaining binding at 10 µM (IKK-epsilon) of the same compound?
The remaining binding at 10 µM was 89%.

And the remaining binding at 10 µM (BMPR1B)?
The remaining binding at 10 µM was 60%.

And the remaining binding at 10 µM (ANKK1)?
Its remaining binding at 10 µM is 78%.

What about the remaining binding at 10 µM [2] of the same compound?
Its remaining binding at 10 µM is 66%.

And the remaining binding at 10 µM (GRK7)?
Its remaining binding at 10 µM is 93%.

And the remaining binding at 10 µM [3]?
Its remaining binding at 10 µM is 64%.

And the remaining binding at 10 µM (PAK1)?
The remaining binding at 10 µM was 76%.

What about the remaining binding at 10 µM [4] of the same compound?
The remaining binding at 10 µM was 74%.

And the remaining binding at 10 µM (WEE2)?
Its remaining binding at 10 µM is 99%.

And the remaining binding at 10 µM (EPHA2)?
The remaining binding at 10 µM was 100%.

What about the remaining binding at 10 µM (LCK) of the same compound?
Its remaining binding at 10 µM is 98%.

What about the remaining binding at 10 µM (IGF1R) of the same compound?
The remaining binding at 10 µM was 91%.
